Where “and” joins values, the source holds several entries; their conditions need not be identical. Identical values can stand only once. Inconclusive results and toxic doses are left out. Cut-off read from the data, not from the text of the source: active = T/C of 150% or more; inactive = T/C below 125%.
Test system: L1210 leukemia ip in BDF1 mice, survival T/C
Assay: NCI In Vivo Anticancer Drug Screen. Data for tumor model L1210 Leukemia (intraperitoneal) in B6D2F1 (BDF1) mice
Conditions: endpoint: mean survival time, higher = longer survival
How it was run: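 Survival endpoint. Drug-treated group vs vehicle group, expressed as T divided by C. Tumor passaged by transplantation.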

[1] = dose: 100.0 mg/kg/injection, schedule: Q04DX003 (ip), vehicle: saline with Tween-80
[2] = dose: 200.0 mg/kg/injection, schedule: Q04DX003 (ip), vehicle: saline with Tween-80
[3] = dose: 400.0 mg/kg/injection, schedule: Q04DX003 (ip), vehicle: saline with Tween-80
[4] = dose: 100.0 mg/kg/injection, schedule: Q01DX001 (ip), vehicle: saline

Measured: T/C

Cc1cc(C)c(C2=C(CC(=O)O)C(=O)c3ccccc3C2=O)c(C)c1
inactive: dose: 100.0 mg/kg/injection, schedule: Q04DX003 (ip), vehicle: gum acacia 92 % of control | dose: 200.0 mg/kg/injection, schedule: Q04DX003 (ip), vehicle: gum acacia 90 % of control | dose: 400.0 mg/kg/injection, schedule: Q04DX003 (ip), vehicle: gum acacia 90 % of control

CC1(c2cccs2)NC(=O)N(Cl)C1=O (stereo not drawn)
inactive: dose: 25.0 mg/kg/injection, schedule: Q01DX009 (ip), vehicle: saline with Tween-80 93 % of control | dose: 25.0 mg/kg/injection, schedule: Q04DX003 (ip), vehicle: saline with Tween-80 99 % of control | dose: 50.0 mg/kg/injection, schedule: Q01DX009 (ip), vehicle: saline with Tween-80 96 % of control | dose: 50.0 mg/kg/injection, schedule: Q04DX003 (ip), vehicle: saline with Tween-80 99 % of control | dose: 100.0 mg/kg/injection, schedule: Q01DX009 (ip), vehicle: saline with Tween-80 105 % of control | [1] 100 % of control and 91 % of control | dose: 200.0 mg/kg/injection, schedule: Q01DX009 (ip), vehicle: saline with Tween-80 94 % of control

O=C(O)CCCC(CC(=O)O)c1ccccc1 (stereo not drawn)
inactive: dose: 50.0 mg/kg/injection, schedule: Q04DX002 (ip), vehicle: saline 108 % of control | dose: 100.0 mg/kg/injection, schedule: Q04DX002 (ip), vehicle: saline 104 % of control | dose: 200.0 mg/kg/injection, schedule: Q04DX002 (ip), vehicle: saline 101 % of control

COC(=O)N/N=C/c1c[nH]c2ccccc12
inactive: dose: 100.0 mg/kg/injection, schedule: Q01DX009 (ip), vehicle: Klucel (hydroxypropylcellulose) (HPC) 94 % of control | dose: 200.0 mg/kg/injection, schedule: Q01DX009 (ip), vehicle: Klucel (hydroxypropylcellulose) (HPC) 106 % of control

CCC(C(=O)O)N1C(=O)C2C3CCC(C3)C2C1=O (stereo not drawn)
inactive: [1] 98 % of control | [2] 103 % of control | [3] 103 % of control

CC1(C)CN1c1nc(N2CC2(C)C)nc(N2CC2(C)C)n1
inactive: dose: 44.0 mg/kg/injection, schedule: Q01DX001 (ip), vehicle: carboxymethylcellulose (CMC) 106 % of control and 108 % of control | dose: 66.0 mg/kg/injection, schedule: Q01DX001 (ip), vehicle: carboxymethylcellulose (CMC) 106 % of control and 108 % of control | dose: 100.0 mg/kg/injection, schedule: Q01DX001 (ip), vehicle: carboxymethylcellulose (CMC) 113 % of control and 120 % of control | dose: 150.0 mg/kg/injection, schedule: Q01DX001 (ip), vehicle: carboxymethylcellulose (CMC) 116 % of control and 118 % of control | dose: 200.0 mg/kg/injection, schedule: Q01DX001 (ip), vehicle: carboxymethylcellulose (CMC) 118 % of control

O=Cc1ccsc1
inactive: dose: 100.0 mg/kg/injection, schedule: Q04DX002 (ip), vehicle: saline with Tween-80 90 % of control | dose: 200.0 mg/kg/injection, schedule: Q04DX002 (ip), vehicle: saline with Tween-80 97 % of control | dose: 400.0 mg/kg/injection, schedule: Q04DX002 (ip), vehicle: saline with Tween-80 101 % of control

C=CCCCCCCCCC(=O)OC
inactive: [4] 100 % of control | dose: 200.0 mg/kg/injection, schedule: Q01DX001 (ip), vehicle: saline 96 % of control | dose: 400.0 mg/kg/injection, schedule: Q01DX001 (ip), vehicle: saline 100 % of control

Cc1cc(C)nc(NNc2nc(C)cc(C)n2)n1
inactive: dose: 100.0 mg/kg/injection, schedule: Q01DX001 (ip), vehicle: saline with Tween-80 105 % of control | [1] 92 % of control | dose: 200.0 mg/kg/injection, schedule: Q01DX001 (ip), vehicle: saline with Tween-80 104 % of control | [2] 92 % of control | dose: 400.0 mg/kg/injection, schedule: Q01DX001 (ip), vehicle: saline with Tween-80 100 % of control | [3] 100 % of control

CN(C)c1ccc2c(c1)C(=NO)c1cc(N(C)C)ccc1-2
inactive: dose: 100.0 mg/kg/injection, schedule: Q04DX003 (ip), vehicle: Klucel (hydroxypropylcellulose) (HPC) 104 % of control | dose: 200.0 mg/kg/injection, schedule: Q04DX003 (ip), vehicle: Klucel (hydroxypropylcellulose) (HPC) 96 % of control | dose: 400.0 mg/kg/injection, schedule: Q04DX003 (ip), vehicle: Klucel (hydroxypropylcellulose) (HPC) 91 % of control

CN(C)CC/C=C1\c2ccccc2C(C)(C)c2ccc(Cl)cc21
inactive: dose: 2.0 mg/kg/injection, schedule: Q01DX015 (ip), vehicle: carboxymethylcellulose (CMC) 97 % of control | dose: 4.0 mg/kg/injection, schedule: Q01DX015 (ip), vehicle: carboxymethylcellulose (CMC) 96 % of control | dose: 8.0 mg/kg/injection, schedule: Q01DX015 (ip), vehicle: carboxymethylcellulose (CMC) 92 % of control | dose: 12.5 mg/kg/injection, schedule: Q01DX009 (ip), vehicle: acetone 86 % of control | dose: 16.0 mg/kg/injection, schedule: Q01DX015 (ip), vehicle: carboxymethylcellulose (CMC) 102 % of control and 91 % of control | dose: 25.0 mg/kg/injection, schedule: Q01DX009 (ip), vehicle: acetone 94 % of control | dose: 25.0 mg/kg/injection, schedule: Q04DX003 (ip), vehicle: saline 96 % of control | dose: 32.0 mg/kg/injection, schedule: Q01DX015 (ip), vehicle: carboxymethylcellulose (CMC) 98 % of control | dose: 50.0 mg/kg/injection, schedule: Q04DX003 (ip), vehicle: saline 91 % of control | [4] 87 % of control
